Tested on: IL-1β production in PMA-differentiated THP-1 cells
Experiment: IL-1β production in PMA-differentiated THP-1 cells stimulated with gramicidin (hTHP-1 assay)
Type: cell-based
Settings: Homo sapiens, gramicidin 5 μM, 2% fetal bovine serum, class symbols
Experimental: Procedure 1: IL-1β Production in PMA-Differentiated THP-1 Cells Stimulated with Gramicidin.
THP-1 cells were purchased from the American Type Culture Collection and sub-cultured according to instructions from the supplier. Cells were cultured in complete RPMI 1640 (containing 10% heat inactivated FBS, penicillin (100 units/ml) and streptomycin (100 μg/ml)), and maintained in log phase prior to experimental setup. Prior to the experiment, compounds were dissolved in dimethyl sulfoxide (DMSO) to generate a 30 mM stock. The compound stock was first pre-diluted in DMSO to 3, 0.34, 0.042 and 0.0083 mM intermediate concentrations and subsequently spotted using Echo550 liquid handler into an empty 384-well assay plate to achieve desired final concentration (e.g. 100, 33, 11, 3.7, 1.2, 0.41, 0.14, 0.046, 0.015, 0.0051, 0.0017 μM). DMSO was backfilled in the plate to achieve a final DMSO assay concentration of 0.37%. The plate was then sealed and stored at room temperature until required.
THP-1 cells were treated with PMA (Phorbol 12-myristate 13-acetate) (20 ng/ml) for 16-18 hours. On the day of the experiment the media was removed and adherent cells were detached with trypsin for 5 minutes. Cells were then harvested, washed with complete RPMI 1640, spun down, and resuspended in RPMI 1640 (containing 2% heat inactivated FBS, penicillin (100 units/ml) and streptomycin (100 μg/ml). The cells were plated in the 384-well assay plate containing the spotted compounds at a density of 50,000 cells/well (final assay volume 50 μl). Cells were incubated with compounds for 1 hour and then stimulated with gramicidin (5 μM) (Enzo) for 2 hours. Plates were then centrifuged at 340 g for 5 min. Cell free supernatant (40 μL) was collected using a 96-channel PlateMaster (Gilson) and the production of IL-1β was evaluated by HTRF (cisbio). The plates were incubated for 18 h at 4° C. and read using the preset HTRF program (donor emission at 620 nm, acceptor emission at 668 nm) of the SpectraMax i3x spectrophotometer (Molecular Devices, software SoftMax 6). A vehicle only control and a dose titration of CRID3 (100-0.0017 μM) were run concurrently with each experiment. Data was normalized to vehicle-treated samples (equivalent to 0% inhibition) and CRID3 at 100 μM (equivalent to 100% inhibition).
Procedure 2: IL-1β Production in PMA-Differentiated THP-1 Cells Stimulated with Gramicidin.
THP-1 cells were purchased from the American Type Culture Collection and sub-cultured according to instructions from the supplier. Prior to experiments, cells were cultured in complete RPMI 1640 (containing 10% heat inactivated FBS, penicillin (100 units/ml) and streptomycin (100 μg/ml)), and maintained in log phase prior to experimental setup. Prior to the experiment THP-1 were treated with PMA (Phorbol 12-myristate 13-acetate) (20 ng/ml) for 16-18 hours. Compounds were dissolved in dimethyl sulfoxide (DMSO) to generate a 30 mM stock. On the day of the experiment the media was removed and adherent cells were detached with trypsin for 5 minutes. Cells were then harvested, washed with complete RPMI 1640, spun down, resuspended in RPMI 1640 (containing 2% heat inactivated FBS, penicillin (100 units/ml) and streptomycin (100 μg/ml). The cells were plated in a 384-well plate at a density of 50,000 cells/well (final assay volume 50 μl). Compounds were first dissolved in assay medium to obtain a 5× top concentration of 500 μM. 10 step dilutions (1:3) were then undertaken in assay medium containing 1.67% DMSO. 5× compound solutions were added to the culture medium to achieve desired final concentration (e.g. 100, 33, 11, 3.7, 1.2, 0.41, 0.14, 0.046, 0.015, 0.0051, 0.0017 μM). Final DMSO concentration was at 0.37%. Cells were incubated with compounds for 1 hour and then stimulated with gramicidin (5 μM) (Enzo) for 2 hours. Plates were then centrifuged at 340 g for 5 min. […]

IC50	SMILES
1000 to 5000 nM	CC(C)c1cc(-c2ccc3c(c2)COCC3)cc(C(C)C)c1CC(=O)NS(=O)(=O)c1sc(C(C)(C)O)nc1CO [Compound 101]
1000 to 5000 nM	CC(C)c1cc2c(c(C(C)C)c1CC(=O)NS(=O)(=O)c1sc(C(C)(C)O)nc1CO)COC2 [Compound 102]
1000 to 5000 nM	COc1cc(S(=O)(=O)NCCCO)ccc1S(=O)(=O)NC(=O)Cc1c(C(C)C)cc(C#N)c(F)c1C(C)C [Compound 103]
5000 to 30000 nM	CC(C)c1ccc(C#N)c(C(C)C)c1CC(=O)NS(=O)(=O)c1sc(C(C)(C)O)nc1CO [Compound 104]
1000 to 5000 nM	CC(C)c1c(F)c(C#N)cc(C2CC2)c1CC(=O)NS(=O)(=O)c1sc(C(C)(C)O)nc1CO [Compound 105]
5000 to 30000 nM	COc1cc(S(=O)(=O)NCCO)ccc1S(=O)(=O)NC(=O)Cc1c(C(C)C)cc(C#N)c(F)c1C(C)C [Compound 106]
200 to 1000 nM	CNS(=O)(=O)c1ccc(S(=O)(=O)NC(=O)Cc2c(C(C)C)cc(C#N)c(F)c2C(C)C)c(O)c1 [Compound 107]
200 to 1000 nM	CC(C)c1cc(C#N)c(F)c(C(C)C)c1CC(=O)NS(=O)(=O)c1sc(C(C)(C)O)nc1CCO [Compound 108]
5000 to 30000 nM	CC(C)c1cncc(C(C)C)c1CC(=O)NS(=O)(=O)c1sc(C(C)(C)O)nc1CO [Compound 109]
5000 to 30000 nM	CNS(=O)(=O)c1ccc(S(=O)(=O)NC(=O)Cc2c(C(C)C)cc(C#N)c(F)c2C(C)C)c(C(N)=O)c1 [Compound 111]
1000 to 5000 nM	CNS(=O)(=O)c1ccc(S(=O)(=O)NC(=O)Cc2c(C(C)C)cc(COC)cc2C(C)C)c(CO)c1 [Compound 116]
1000 to 5000 nM	COCc1cc(C(C)C)c(CC(=O)NS(=O)(=O)c2sc(C(C)(C)O)nc2CO)c(C(C)C)c1 [Compound 118]
5000 to 30000 nM	CNS(=O)(=O)c1ccc(S(=O)(=O)NC(=O)Cc2c(C(C)C)cc(C#N)c(F)c2C(C)C)c(C(=O)OC)c1 [Compound 120]
5000 to 30000 nM	Cc1cc(C(C)(C)O)c(CO)cc1S(=O)(=O)NC(=O)Cc1c(C(C)C)cc(C#N)cc1C(C)C [Compound 123]
1000 to 5000 nM	CC(C)c1cc(C#N)c(F)c(C(C)C)c1CC(=O)NS(=O)(=O)c1cc(CO)c(C(C)(C)O)cc1F [Compound 125]
1000 to 5000 nM	CNS(=O)(=O)c1cc(CO)cc(S(=O)(=O)NC(=O)Cc2c(C(C)C)cc(C#N)c(F)c2C(C)C)c1 [Compound 129]
1000 to 5000 nM	CC(C)c1cc(C#N)cc(C(C)C)c1CC(=O)NS(=O)(=O)c1cc(CO)c(C(C)(C)O)cc1F [Compound 130]
1000 to 5000 nM	CC(C)c1cc(C#N)c(F)c(C(C)C)c1CC(=O)NS(=O)(=O)c1ccc(S(N)(=O)=O)c(CO)c1 [Compound 131]
5000 to 30000 nM	CNC(=O)c1cc(S(=O)(=O)NC(=O)Cc2c(C(C)C)cc(C#N)c(F)c2C(C)C)ccc1S(=O)(=O)NC [Compound 132]
1000 to 5000 nM	CC(C)c1cc(C#N)c(F)c(C(C)C)c1CC(=O)NS(=O)(=O)c1ccc(CN(C)C)c(CO)c1 [Compound 133]
1000 to 5000 nM	CC(C)c1cc(C#N)cc(C(C)C)c1CC(=O)NS(=O)(=O)c1sc(C(C)(C)O)nc1CO [Compound 134]
200 to 1000 nM	CC(C)c1c(F)c(C#N)c(F)c(C(C)C)c1CC(=O)NS(=O)(=O)c1sc(C(C)(C)O)nc1CO [Compound 135]
200 to 1000 nM	CC(C)c1cc(C#N)c(F)c(C(C)C)c1CC(=O)NS(=O)(=O)c1sc(C(C)(C)O)nc1CO [Compound 136]
5000 to 30000 nM	CC(C)c1cc(C#N)cc(C(C)C)c1CC(=O)NS(=O)(=O)c1ccc(CN(C)C)c(CO)c1 [Compound 137]
1000 to 5000 nM	CC(C)c1cc(C#N)c(F)c(C(C)C)c1CC(=O)NS(=O)(=O)c1ccc(C(C)(C)O)c(CO)c1 [Compound 138]
8 to 40 nM	CC(C)c1cc(-c2ccc3c(c2)OC(F)(F)O3)cc(C(C)C)c1CC(=O)NS(=O)(=O)c1sc(C(C)(C)O)nc1CO [Compound 142]

SMILES	IC50
CNS(=O)(=O)c1ccc(S(=O)(=O)NC(=O)Cc2c(C(C)C)cc(C#N)c(F)c2C(C)C)c(OC)c1 [Compound 117]	200 to 1000 nM
CCC(C)c1cc(C#N)cc(C(C)C)c1CC(=O)NS(=O)(=O)c1sc(C(C)(C)O)nc1CO (stereo not drawn) [Compound 119]	200 to 1000 nM
CC(C)Cc1cc(C#N)cc(C(C)C)c1CC(=O)NS(=O)(=O)c1sc(C(C)(C)O)nc1CO [Compound 122]	1000 to 5000 nM
CNS(=O)(=O)c1ccc(S(=O)(=O)NC(=O)Cc2c(C(C)C)cc(C#N)c(F)c2C(C)C)c(CO)c1 [Compound 127]	200 to 1000 nM
CNS(=O)(=O)c1ccc(S(=O)(=O)NC(=O)Cc2c(C(C)C)cc(C#N)c(F)c2C(C)C)cc1CO [Compound 128]	200 to 1000 nM
CNS(=O)(=O)c1ccc(S(=O)(=O)NC(=O)Cc2c(C(C)C)cc(COC3CCCC3)cc2C(C)C)c(CO)c1 [Compound 140]	40 to 200 nM

Same assay, conditions: Homo sapiens, gramicidin 5 μM, 2% fetal bovine serum, given as numeric bound

IC50	SMILES
> 100000 nM	CNS(=O)(=O)c1ccc(S(=O)(=O)NC(=O)Cc2c(C(C)C)cc(C#N)c(F)c2C(C)C)c(C(=O)N(C)C)c1 [Compound 112]
> 100000 nM	CNS(=O)(=O)c1ccc(S(=O)(=O)NC(=O)Cc2c(C(C)C)cc(C#N)c(F)c2C(C)C)c(C(=O)O)c1 [Compound 114]
> 100000 nM	CC(C)c1cc(C#N)c(F)c(C(C)C)c1CC(=O)NS(=O)(=O)c1ccc(S(=O)(=O)NC(C)(C)C)cc1CO [Compound 124]
> 100000 nM	CC(C)c1cc(C#N)c(F)c(C(C)C)c1CC(=O)NS(=O)(=O)c1ccc(S(N)(=O)=O)cc1CO [Compound 126]

Tested on: not listed separately
Experiment: Colon pharmacokinetics in mice
Type: in vivo
Settings: 30 mg/kg oral gavage in 0.5% methyl-cellulose in water, male C57BL/6 mouse, colon conc. to plasma conc. ratio at 8 h; read-out: Mouse TD Colon/Plasma @ 8 h
Experimental: Assay 2: Colon Pharmacokinetics in Mice
The test compound was formulated in 0.5% methyl-cellulose in water and dosed via oral gavage at 30 mg/kg to Male C57BL/6 Mouse. At various time points (typically 15 min, 30 min, 1, 2, 4, 6 and 8 h) post dosing, blood samples were removed via cardiac […] puncture and intact colons were excised from the […]. Blood samples were centrifuged at 1500×g for 15 min to collect plasma. At the terminal time point each individual animal is anaesthetized, abdominal cavity is opened and from 2 cm below the caecum a 4 cm sample of the colon is dissected, cut open on the longitudinal axis and the solid contents removed by flushing with 2 mL of physiological fluid. The colon was further washed by putting it in 5 mL of physiological saline and shaken for 1 minute. The colon was pet dry weighed and transferred in 2 mL tubes. Colon will be weighted and homogenized with water by tissue weight (g) to water volume (mL) at ratio 1:3 before analysis. The actual concentration is the detected value multiplied by the dilution factor. A colon to plasma ratio was determined as the ratio of the colon conc. to the plasma conc. in pg hr/g. at 8 h time point.

SMILES	Kp at 8 h
CNS(=O)(=O)c1ccc(S(=O)(=O)NC(=O)Cc2c(C(C)C)cc(C#N)c(F)c2C(C)C)c(OC)c1 [Compound 117]	3380
CCC(C)c1cc(C#N)cc(C(C)C)c1CC(=O)NS(=O)(=O)c1sc(C(C)(C)O)nc1CO (stereo not drawn) [Compound 119]	6720
CC(C)Cc1cc(C#N)cc(C(C)C)c1CC(=O)NS(=O)(=O)c1sc(C(C)(C)O)nc1CO [Compound 122]	1480
CNS(=O)(=O)c1ccc(S(=O)(=O)NC(=O)Cc2c(C(C)C)cc(C#N)c(F)c2C(C)C)c(CO)c1 [Compound 127]	197
CNS(=O)(=O)c1ccc(S(=O)(=O)NC(=O)Cc2c(C(C)C)cc(C#N)c(F)c2C(C)C)cc1CO [Compound 128]	1180
CNS(=O)(=O)c1ccc(S(=O)(=O)NC(=O)Cc2c(C(C)C)cc(COC3CCCC3)cc2C(C)C)c(CO)c1 [Compound 140]	558

— patent publication US20210395241A1, “NLRP MODULATORS” (Novartis AG, priority 2018, published 2021)
